Patent US20190136191A1, “Methods of Producing Specialized Cardio-Like Cells from Stem Cells” (Emory University, priority 2016, published 2019)

Key:
[1] = tested on: Human ESCs (H9); assay: Mesoderm formation during cardiac differentiation of hESCs (brachyury (T)+ cells); assay type: cell-based
From the text: (§1) Human ESCs (H9) were differentiated to cardiac lineage by treatment with Activin A, BMP4 and bFGF (ABF, control group) for two days (day 1-2) Mesoderm formation was identified by brachyury (T)+ cells, and the ensuing pan-cardiac myocyte lineage was marked by cTnT+ cells. In control, this process was highly efficient, reaching 75% and 82%, respectively. […] In contrast, late (day 6-9) activation of RA (Late-RA) led to >90% cTnT+ population. […] Furthermore, the Late-RA cardiomyocytes expressed higher transcript and protein levels of the first heart field (FHF) markers, NKX2.5, TBX5 and HCN4.

[2] = tested on: Human ESCs (H9); assay: Chamber and heart field marker expression in hESC-derived cardiomyocytes; assay type: cell-based
From the text: IRX4 and HRT2 are ventricular marker. CoupTFII is an atrial marker. NKX2.5, TBX5, HCN4 are markers of the first heart field, which becomes the left ventricular and atrial cardiac myocytes.
Is11, Mef2c, Fgf8, and Fgf10 are markers of the second heart field, which become right ventricular cardiac myocytes.
as §1
Reported are specific and robust derivation of the left ventricular-like cells by activating RA signaling during the late stage of hESC differentiation.

[3] = tested on: Human ESCs (H9); assay: Pan-cardiac myocyte lineage formation from hESCs (cTnT+ cells); assay type: cell-based
From the text: as §1

[4] = tested on: hESCs; assay: Differentiation protocols of hESCs to cardio-like cell subtypes (AFB, AFB+RA, Ri+AFB+RA); assay type: cell-based, human
Experimental: To create the cardio-like cells from hESCs, at the early stage (day 0-3), hESCs were treated with ActivinA, bFGF and BMP4 to induce mesoderm and cardiac mesoderm cells generation. […] Wnt inhibitor promoted cardiac progenitor cells into cardio-like cells during day 5-11.
To create atrial-like cells from hESCs, at the early stage (day 0-3), hESCs were treated with ActivinA, bFGF and BMP4 to induce mesoderm and cardiac mesoderm cells generation. […] Wnt inhibitor promoted differentiation of cardiac progenitor cells into cardio-like cells during day 5-11.
To create first heart field (FHF) derived left ventricular-like cells from hESCs, at the early stage (day 0-3), hESCs were treated with ActivinA, bFGF, BMP4 and additional short time (day 0-1) treatment of BMS4.93(Ri) to induce mesoderm and cardiac mesoderm cells generation. […] Wnt inhibitor promoted cardiac progenitor cells into cardiomyocytes during day 5-11.

[5] = Late-RA cardiomyocytes compared to control
[6] = early inhibition of RA signaling

CC(C=CC1=C(C)CCCC1(C)C)=CC=CC(C)=CC(=O)O [RA, 3,7-dimethyl-9-(2,6,6-trimethylcyclohexen-1-yl)nona-2,4,6,8-tetraenoic acid]
Generation of mesoderm lineage ([1]; early activation of RA): failed to generate mesoderm lineage | First heart field marker HCN4 transcript and protein levels ([2]; Late-RA cardiomyocytes): higher | First heart field marker NKX2.5 transcript and protein levels ([2]; Late-RA cardiomyocytes): higher | First heart field marker TBX5 transcript and protein levels ([2]; Late-RA cardiomyocytes): higher | Atrial marker CoupTFII expression [2, 5]: down-regulated | Second heart field marker FGF8 expression [2, 5]: downregulated | Second heart field marker FGF10 expression [2, 5]: downregulated | Second heart field marker ISL1 expression [2, 5]: downregulated | Ventricular marker HRT2 expression [2, 5]: up-regulated | Ventricular marker IRX4 expression [2, 5]: up-regulated | cTnT+ population ([3]; late (day 6-9) activation of RA (Late-RA)): > 90% | Cell subtype specified ([4]; AFB+RA protocol, RA during day 5-8, no early RA inhibitor): specified atria-like subtypes | Cell subtype specified ([4]; Ri+AFB+RA protocol, RA during day 5-8 after Ri day 0-1): specified first heart field (FHF) derived left ventricular-like cell subtypes

CC1(C)CC=C(C#Cc2ccccc2)c2cc(/C=C/c3ccc(C(=O)O)cc3)ccc21 [BMS-189493, (E)-4-(2-(5,5-dimethyl-8-(phenylethynyl)-5,6-dihydronaphthalen-2-yl)vinyl)benzoic acid]
Mesoderm induction [1, 6]: increased mesoderm induction | Mesodermal cells that failed to become cardiac myocytes [3, 6]: 86%

B1: Noggin: secreted protein that binds and inactivates TGF-beta superfamily signaling proteins (protein, UniProt Q13253 28-232, looked up)
Noggin: QHYLHIRPAPSDNLPLVDLIEHPDPIFDPKEKDLNETLLRSLLGGHYDPGFMATSPPEDRPGGGGGAAGGAEDLAELDQLLRQRPSGAMPSEIKGLEFSEGLAQGKKQRLSKKLRRKLQMWLWSQTFCPVLYAWNDLGSRFWPRYVKVGSCFSKRSCSVPEGMVCKPSKSVHLTVLRWRCQRRGGQRCGWIPIQYPIISECKCSC
Effect on cardiac lineage cells ([4]; Noggin treatment during day 3-5): expanded more cardiac lineage cells
